ChEMBL document CHEMBL1201862, “PubChem BioAssay data set” (2004)
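Five compound concentrations were applied to cells in 96-well plates for 48 hours; endpoints were derived by simple linear interpolation of the resulting dose-response curve. The concentration for 50% growth inhibition is given as GI50.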 Calls of active or inactive are those of the source. Cut-off read from the data, not from the text of the source: active = GI50 up to about 1.1 µM and inactive = higher.

What was measured:
Experiment in all cases: DTP human tumour cell line panel, 48 h
HOP-62 = tested on: HOP-62
CAKI-1 = tested on: CAKI-1
HCC 2998 = tested on: HCC 2998
M14 = tested on: M14
OVCAR-8 = tested on: OVCAR-8
T47D = tested on: T47D
SK-MEL-2 = tested on: SK-MEL-2
SF-295 = tested on: SF-295
IGROV-1 = tested on: IGROV-1
SK-MEL-5 = tested on: SK-MEL-5
MDA-N = tested on: MDA-N
HCT-15 = tested on: HCT-15
EKVX = tested on: EKVX
TK-10 = tested on: TK-10
RPMI-8226 = tested on: RPMI-8226
KM12 = tested on: KM12
RXF 393 = tested on: RXF 393
COLO 205 = tested on: COLO 205
HT-29 = tested on: HT-29
HOP-92 = tested on: HOP-92

In the case of `C[C@]12CC[C@@H]3c4ccc(O)cc4CC[C@H]3[C@@H]1C/C(=C\c1ccc([N+](=O)[O-])cc1)C2=O`, the GI50 (HOP-62) is reported as 33.7 µM (inactive), the GI50 (CAKI-1) is reported as > 100 µM (inactive) and the GI50 (HCC 2998) is reported as 73.3 µM (inactive). The GI50 (M14) was 53.3 µM (inactive), the GI50 (OVCAR-8) was 34.9 µM (inactive) and the GI50 (T47D) was 40 µM (inactive). For the same compound, the GI50 (SK-MEL-2) was 44.6 µM (inactive), the GI50 (SF-295) was > 100 µM (inactive) and the GI50 (IGROV-1) was > 100 µM (inactive). For the same compound, the GI50 (SK-MEL-5) was 41.5 µM (inactive), the GI50 (MDA-N) was 49.5 µM (inactive) and the GI50 (HCT-15) was 67 µM. For the same compound, the GI50 (EKVX) was 52.6 µM (inactive), the GI50 (TK-10) was 80 µM (inactive) and the GI50 (RPMI-8226) was > 100 µM (inactive). The GI50 (KM12) was 42.6 µM (inactive), the GI50 (RXF 393) was 15.9 µM (inactive) and the GI50 (COLO 205) was > 100 µM (inactive). For the same compound, the GI50 (HT-29) was 18.6 µM (inactive).
For `Cc1cc2c(cc1Cl)SC(NS(=O)(=O)c1ccc(Cl)cc1)=NS2(=O)=O`, the GI50 (HOP-62) was 98.6 µM (inactive), the GI50 (CAKI-1) was > 100 µM (inactive) and the GI50 (M14) was 82.2 µM (inactive). For the same compound, the GI50 (T47D) was > 100 µM (inactive), the GI50 (SK-MEL-2) was 54 µM (inactive) and the GI50 (SF-295) was 23 µM (inactive). For the same compound, the GI50 (IGROV-1) was 89.5 µM (inactive), the GI50 (SK-MEL-5) was 46 µM (inactive) and the GI50 (HCT-15) was > 100 µM. The GI50 (EKVX) was 38.4 µM (inactive), the GI50 (TK-10) was 30.3 µM (inactive) and the GI50 (RPMI-8226) was 57 µM (inactive). For the same compound, the GI50 (KM12) was > 100 µM (inactive), the GI50 (RXF 393) was 13.6 µM (inactive) and the GI50 (HOP-92) was 16 µM (inactive). The GI50 (COLO 205) was > 100 µM (inactive) and the GI50 (HT-29) was 47.4 µM (inactive).
For `COC1CCN(N(C)C)O1` (stereo not drawn), the GI50 (HOP-62) was > 100 µM (inactive), the GI50 (CAKI-1) was > 100 µM (inactive) and the GI50 (HCC 2998) was > 100 µM (inactive). The GI50 (M14) was > 100 µM (inactive), the GI50 (OVCAR-8) was > 100 µM (inactive) and the GI50 (T47D) was > 100 µM (inactive). For the same compound, the GI50 (SK-MEL-2) was > 100 µM (inactive), the GI50 (SF-295) was > 100 µM (inactive) and the GI50 (IGROV-1) was > 100 µM (inactive). For the same compound, the GI50 (SK-MEL-5) was > 100 µM (inactive), the GI50 (HCT-15) was > 100 µM and the GI50 (EKVX) was > 100 µM (inactive). The GI50 (TK-10) was > 100 µM (inactive), the GI50 (RPMI-8226) was > 100 µM (inactive) and the GI50 (KM12) was > 100 µM (inactive). For the same compound, the GI50 (RXF 393) was > 100 µM (inactive), the GI50 (COLO 205) was > 100 µM (inactive) and the GI50 (HT-29) was > 100 µM (inactive).
`Clc1cc2c(cc1Cl)CC(NCCN1CCCC1)CC2` (stereo not drawn) was tested, and the GI50 (HOP-62) was 16 µM (inactive), the GI50 (CAKI-1) was 15.7 µM (inactive) and the GI50 (HCC 2998) was 2.7 µM (inactive). For the same compound, the GI50 (M14) was 12 µM (inactive), the GI50 (OVCAR-8) was 16.7 µM (inactive) and the GI50 (T47D) was 10.4 µM (inactive). The GI50 (SK-MEL-2) was 17.8 µM (inactive), the GI50 (SF-295) was 16.1 µM (inactive) and the GI50 (IGROV-1) was 15.4 µM (inactive). The GI50 (SK-MEL-5) was 3.74 µM (inactive), the GI50 (MDA-N) was 3.85 µM (inactive) and the GI50 (HCT-15) was 12.9 µM. The GI50 (EKVX) was 18.7 µM (inactive), the GI50 (TK-10) was 14.4 µM (inactive) and the GI50 (RPMI-8226) was 12.6 µM (inactive). The GI50 (KM12) was 15.2 µM (inactive), the GI50 (COLO 205) was 3.07 µM (inactive) and the GI50 (HT-29) was 4.35 µM (inactive).
With `CCc1nc2ccc(NCCN(C)C)c3c(=O)c4ccccc4n1c23` the GI50 (HOP-62) was 0.796 µM (active), the GI50 (CAKI-1) was 1.56 µM (inactive) and the GI50 (HCC 2998) was 0.762 µM (active). The GI50 (M14) was 1.52 µM (inactive), the GI50 (OVCAR-8) was 0.515 µM (active) and the GI50 (T47D) was 2.59 µM (inactive). The GI50 (SK-MEL-2) was 3.07 µM (inactive), the GI50 (SF-295) was 0.741 µM (active) and the GI50 (IGROV-1) was 0.265 µM (active). The GI50 (HCT-15) was 0.456 µM, the GI50 (EKVX) was 1.17 µM (inactive) and the GI50 (TK-10) was 2.31 µM (inactive). For the same compound, the GI50 (RPMI-8226) was 0.752 µM (active), the GI50 (KM12) was 0.701 µM (active) and the GI50 (RXF 393) was 1.67 µM (inactive). The GI50 (HOP-92) was 0.592 µM (active), the GI50 (COLO 205) was 0.307 µM (active) and the GI50 (HT-29) was 0.489 µM (active).
With `CNC(=O)N1CN(c2ccccc2)C2(CCN(CCCC(=O)c3ccc(F)cc3)CC2)C1=O` the GI50 (HOP-62) was 8.22 µM (inactive), the GI50 (CAKI-1) was 24.8 µM (inactive) and the GI50 (HCC 2998) was 7.82 µM (inactive). The GI50 (M14) was 16.5 µM (inactive), the GI50 (OVCAR-8) was 31.5 µM (inactive) and the GI50 (T47D) was 4.98 µM (inactive). The GI50 (SF-295) was 16.8 µM (inactive), the GI50 (IGROV-1) was 19.5 µM (inactive) and the GI50 (SK-MEL-5) was 11.8 µM (inactive). The GI50 (HCT-15) was 15.5 µM, the GI50 (EKVX) was 12.8 µM (inactive) and the GI50 (TK-10) was 18 µM (inactive). For the same compound, the GI50 (RPMI-8226) was 14.1 µM (inactive), the GI50 (KM12) was 20.9 µM (inactive) and the GI50 (RXF 393) was 20.5 µM (inactive). The GI50 (COLO 205) was 4.56 µM (inactive) and the GI50 (HT-29) was 5.19 µM (inactive).
For `COC(=O)C1Cc2c([nH]c3ccccc23)-c2[nH]c3ccccc3c2CC(NC(C)=O)C(=O)N2CCCC2C(=O)N1` (stereo not drawn), the GI50 (HOP-62) was > 100 µM (inactive), the GI50 (CAKI-1) was > 100 µM (inactive) and the GI50 (HCC 2998) was > 100 µM (inactive). For the same compound, the GI50 (OVCAR-8) was > 100 µM (inactive), the GI50 (T47D) was > 100 µM (inactive) and the GI50 (SK-MEL-2) was > 100 µM (inactive). For the same compound, the GI50 (SF-295) was > 100 µM (inactive), the GI50 (IGROV-1) was 24.8 µM (inactive) and the GI50 (SK-MEL-5) was > 100 µM (inactive). For the same compound, the GI50 (MDA-N) was > 100 µM (inactive), the GI50 (HCT-15) was > 100 µM and the GI50 (EKVX) was > 100 µM (inactive). The GI50 (TK-10) was > 100 µM (inactive), the GI50 (RPMI-8226) was 56.8 µM (inactive) and the GI50 (RXF 393) was > 100 µM (inactive). The GI50 (COLO 205) was 53.1 µM (inactive) and the GI50 (HT-29) was > 100 µM (inactive).
In the case of `COc1ccc(/C=C2\CCC(C)(CN(C)C)C2=O)cc1Br` (stereo not drawn), the GI50 (HOP-62) is reported as 49.3 µM (inactive), the GI50 (CAKI-1) is reported as 32.7 µM (inactive) and the GI50 (HCC 2998) is reported as 20.8 µM (inactive). For the same compound, the GI50 (M14) was 19.8 µM (inactive), the GI50 (OVCAR-8) was 17 µM (inactive) and the GI50 (SK-MEL-2) was 18.7 µM (inactive). For the same compound, the GI50 (SF-295) was 26.3 µM (inactive), the GI50 (IGROV-1) was 16.2 µM (inactive) and the GI50 (SK-MEL-5) was 14.8 µM (inactive). For the same compound, the GI50 (MDA-N) was 19.1 µM (inactive), the GI50 (HCT-15) was 16.9 µM and the GI50 (EKVX) was 10.2 µM (inactive). The GI50 (TK-10) was 22 µM (inactive), the GI50 (RPMI-8226) was 19.1 µM (inactive) and the GI50 (KM12) was 14 µM (inactive). For the same compound, the GI50 (RXF 393) was 17.9 µM (inactive), the GI50 (HOP-92) was 29.9 µM (inactive) and the GI50 (COLO 205) was 18.5 µM (inactive). The GI50 (HT-29) was 21.9 µM (inactive).
